Values quoted from earlier work, collected in patent publication US20170020817A1, “SOLID NANOPARTICLE FORMULATION OF MICROTUBLE INHIBITORS WITH REDUCED OSTWALD REPENING FOR ORAL ADMINISTRATION” (Luminus Biosciences, Inc., priority 2013, published 2017).

Legend:
[1] = test system: microtubules; settings: most test systems

Structure (SMILES)	solubility in water	effectiveness relative to epothilone A [1]
C/C(=C\c1csc(C)n1)[C@@H]1C[C@@H]2O[C@]2(C)CCC[C@H](C)[C@H](O)[C@@H](C)C(=O)C(C)(C)[C@@H](O)CC(=O)N1 [Ixabepilone]	about 3.5 mg/L	
CO[C@H]1C(=O)[C@]2(C)[C@@H](OC)C[C@H]3OC[C@@]3(OC(C)=O)[C@H]2[C@H](OC(=O)c2ccccc2)[C@]2(O)C[C@H](OC(=O)[C@H](O)[C@@H](NC(=O)OC(C)(C)C)c3ccccc3)C(C)=C1C2(C)C [cabazitaxel]	about 8 mg/L	
CC(=O)O[C@@]12CO[C@@H]1C[C@H](O)[C@@]1(C)C(=O)[C@H](O)C3=C(C)[C@@H](OC(=O)[C@H](O)[C@@H](NC(=O)OC(C)(C)C)c4ccccc4)C[C@@](O)([C@@H](OC(=O)c4ccccc4)[C@H]21)C3(C)C [docetaxel]	about 14 mg/L	
C/C(=C\c1csc(C)n1)[C@@H]1C[C@@H]2O[C@]2(C)CCC[C@H](C)[C@H](O)[C@@H](C)C(=O)C(C)(C)[C@@H](O)CC(=O)O1 [epothilone B]		approximately ten-time more effective
CC(=O)O[C@H]1C(=O)[C@@]2(C)[C@H]([C@H](OC(=O)c3ccccc3)[C@]3(O)C[C@H](OC(=O)[C@H](O)[C@@H](NC(=O)c4ccccc4)c4ccccc4)C(C)=C1C3(C)C)[C@]1(OC(C)=O)CO[C@@H]1C[C@@H]2O [paclitaxel]	about 0.4 mg/L	
